Where a SMILES comes first, the peptide text is derived from it. Bridges are numbered along the chain shown (N, C = ends).
Columns and labels:
HL-60 cells = experiment: Lactate dehydrogenase (LDH)-release assay; format: cell-based, human; details: HL-60, 1 h of incubation, 1.56–25 μM, RPMI serum-free medium; two independent series of triplicated experiments
Protocol: The loss of membrane integrity, detected by trypan blue exclusion assay and annexin V-FITC/propidium iodide double staining, was also evaluated by lactate dehydrogenase (LDH)-release. The cytosolic enzyme LDH is released upon cell lysis and therefore can be a marker of cell integrity. The percentage of LDH-leakage from cells enables evaluation of direct cell lysis.
The LDH-release assay (CytoTox 96 Non-Radioactive Cytotoxicity Assay; Promega Corporation, Madison, WI, USA) was performed according to the manufacturer’s protocol. Suspension HL-60 cells (4 × 10^4) were seeded into a 96-well plate in triplicate and incubated for 1 h with various concentrations of polyphemusin III at 100 μL per well in RPMI serum-free medium. Untreated cells served as a control for spontaneous LDH-release and cells treated with 1% Triton X-100 were used as a control for maximal LDH-release. Absorbance was measured at 490 nm using a microplate reader (Eppendorf, Hamburg, Germany). Percent LDH-release was calculated using the following Equation (2):[(experimental LDH-release − spontaneous LDH-release)/(maximal LDH-release − spontaneous LDH-release)] × 100(2)
The dose response curve shown is an average of two independent experiments.

[1] = test system: Gram-positive and Gram-negative bacteria; experiment: Antimicrobial assay, MIC summarised over the panel of strains; format: cell-based; details: E. coli ML35p, K. pneumoniae (CI 287) and S. aureus 209P
Protocol: Bacterial test cultures were grown in the Mueller-Hinton (MH) medium at 37 °C to mid-log phase and then diluted with the 2 x MH medium supplemented with 1.8% NaCl. 50 µL of the bacterial suspension with a final cell concentration of 10^6 CFU/mL were added to aliquots of 50 µL of the peptide solutions and serially diluted with sterilized 0.1% bovine serum albumin in 96-well flat-bottom polystyrene microplates (Eppendorf, Hamburg, Germany). Bacterial cells were incubated for 24 h at 37 °C and 900 rpm on the plate thermoshaker (Biosan, Riga, Latvia). The minimum inhibitory concentrations (MIC) were determined as the lowest peptide concentration that prevented growth of a test microorganism observed as visible turbidity. The results were expressed as median values of three independent triplicated experiments. Assessment of antimicrobial activities of the recombinant PM III, other polyphemusins, and tachyplesins was conducted against Gram-negative (Escherichia coli ML-35p, Klebsiella pneumoniae (clinical isolate, CI 287), Pseudomonas aeruginosa PAO1) and Gram-positive (Staphylococcus aureus ATCC 29213, Staphylococcus aureus 209P, Bacillus subtilis B-886, Micrococcus luteus B-1314) bacteria.

[2] = test system: Caspase cascade pathway in HL-60 cells; experiment: Gene expression profiling and Oncobox pathway analysis; format: cell-based, human; details: versus intact cells, Oncobox
Protocol: To get a deeper molecular insight into the mechanisms of cell death induced by PM III, we profiled gene expression in the PM III treated (1.25, 2.5, and 5 µM) and intact HL-60 cells. Gene expression profiles were further analyzed using the Oncobox bioinformatical platform to measure activation levels of 376 intracellular signaling pathways. We found a significant inhibition of the Caspase cascade (Figure 6), while the TRAF (tumor necrosis factor receptor (TNF-R)-associated factor) pathway was strongly activated (Figure 7) following the PM III treatment. An additional line of evidence for the non-apoptotic mechanism of the PM III mediated activity was provided by the PTEN pathway. […] The activation levels of all signaling pathways profiled in this study and case-to-normal ratios for the respective genes are shown in Supplementary Table S1. Taken together, these facts rather argue for a non-apoptotic mode of the PM III action.
RNA extraction was performed immediately before preparation of sequencing libraries using a QIAGEN RNeasy Kit (Qiagen, Venlo, Netherlands) following the manufacturer’s protocol. Then, the RNA Integrity Number (RIN) was measured using an Agilent 2100 bio-Analyzer. Agilent RNA 6000 Nano or Qubit RNA Assay Kits were used to measure RNA concentration. A KAPA RNA Hyper with RiboErase (KAPA Biosystems, Wilmington, MA, USA) kit was used for further depletion of ribosomal RNA. […] Library concentrations and quality were measured using a Qubit ds DNA HS Assay kit (Life Technologies, Carlsbad, CA, USA) and Agilent Tapestation (Agilent, Santa Clara, CA, USA). RNA sequencing was performed using Illumina HiSeq 3000 equipment for single-end sequencing, 50 bp read length, for approximately 30 million raw reads per each sample. […]
The SABiosciences knowledge base was used to determine structures of intracellular molecular pathways as described previously. […] CNRs were calculated as the ratios of expression levels of a gene in the experimental samples to average expression levels in the control samples. […]

## CC(C)[C@@H]1NC(=O)[C@H](CCCNC(=N)N)NC(=O)[C@H](Cc2ccccc2)NC(=O)[C@@H](NC(=O)CNC(=O)[C@H](CCCNC(=N)N)NC(=O)[C@@H](N)CCCNC(=N)N)CSSC[C@@H](C(=O)N[C@@H](CCCNC(=N)N)C(=O)O)NC(=O)[C@H](CCCNC(=N)N)NC(=O)[C@H](CCC(N)=O)NC(=O)[C@H](Cc2ccccc2)NC(=O)[C@@H]2CSSC[C@H](NC1=O)C(=O)N[C@@H](Cc1ccc(O)cc1)C(=O)N[C@@H](CCCNC(=N)N)C(=O)NCC(=O)N[C@@H](Cc1ccccc1)C(=O)N2 [PM III, polyphemusin III] (H-RRGCFRVCYRGFCFQRCR-OH; disulfide 4-17, 8-13 (inferred); N-terminus assumed)
HL-60 cells
  LDH-release (cell lysis): concentration-dependent lysis
[1]
  reduction in activity compared to PM I, TP I, and TP III: 4 fold
[2]; HL-60, 1.25 μM
  Caspase Cascade: PAS (pathway activation strength): -13.08
[2]; HL-60, 2.5 μM
  Caspase Cascade: PAS (pathway activation strength): -13.96
[2]; HL-60, 5 μM
  Caspase Cascade: PAS (pathway activation strength): -16.64

Source: article PMC6315362, “Cytotoxic Potential of the Novel Horseshoe Crab Peptide Polyphemusin III” (Marine Drugs, 2018)
